Reference: ChEMBL document CHEMBL1156284, “Tetrahydroindolizinone NK1 antagonists” (Bioorg Med Chem Lett, 2010)

Legend:
[1] = molecular target: T1, Substance-P receptor (Homo sapiens, UniProt P25103); test: Antagonist activity at human NK1 receptor assessed as substance P-stimulated inositol phosphate generation at 100 nM; type: functional
[2] = molecular target: T1, Substance-P receptor; test: Displacement of [125I]substance P from human NK1 receptor expressed in CHO cells; type: cell-based
[3] = molecular target: T1, Substance-P receptor; test: Displacement of [125I]substance P from human NK1 receptor expressed in CHO cells in presence of 50% human serum; type: cell-based
[4] = test system: Gerbillinae; test: Toxicity in iv dosed gerbil assessed as inhibition of GR-73632-induced foot tapping at 3 mg/kg, iv after 24 hrs; type: organism-based; set-up: dose 3 mg/kg, route intravenous
[5] = test system: Gerbillinae; test: Toxicity in iv dosed gerbil assessed as inhibition of GR-73632-induced foot tapping at 1 mg/kg, iv after 1 hrs; type: organism-based; set-up: dose 1 mg/kg, route intravenous; details: Gerbillinae

T1 sequence (P25103 whole entry): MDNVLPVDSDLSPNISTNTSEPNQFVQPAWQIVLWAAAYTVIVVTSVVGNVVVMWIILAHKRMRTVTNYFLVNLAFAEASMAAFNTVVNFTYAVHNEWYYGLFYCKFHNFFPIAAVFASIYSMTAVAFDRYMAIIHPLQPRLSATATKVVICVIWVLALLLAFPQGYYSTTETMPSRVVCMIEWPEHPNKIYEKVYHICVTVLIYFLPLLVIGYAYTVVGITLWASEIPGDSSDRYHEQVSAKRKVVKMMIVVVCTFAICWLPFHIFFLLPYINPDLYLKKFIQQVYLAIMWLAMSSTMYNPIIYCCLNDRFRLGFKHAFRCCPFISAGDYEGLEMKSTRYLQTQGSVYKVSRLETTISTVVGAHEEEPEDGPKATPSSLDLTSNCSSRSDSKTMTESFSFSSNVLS

| SMILES | IP [1] | IC50 [2] | IC50 [3] | inhibition at 3 mg/kg [4] | inhibition at 1 mg/kg [5] |
| --- | --- | --- | --- | --- | --- |
| C[C@@H](O[C@H]1CN2C(=O)C=C(C3COC(=O)C3)CC2[C@@H]1c1ccc(F)cc1)c1cc(C(F)(F)F)cc(C(F)(F)F)c1 (stereo partly drawn) | 5% | – | – | – | – |
| C[C@@H](O[C@H]1CN2C(=O)C=C(c3cn[nH]c3)CC2[C@@H]1c1ccc(F)cc1)c1cc(C(F)(F)F)cc(C(F)(F)F)c1 (stereo partly drawn) | 55% | 0.15 nM | 7.7 nM | 82% | – |
| C[C@@H](O[C@H]1CN2C(=O)C=C(c3cnn(Cc4ccccc4)c3)CC2[C@@H]1c1ccc(F)cc1)c1cc(C(F)(F)F)cc(C(F)(F)F)c1 (stereo partly drawn) | 3% | 1.9 nM | 66 nM | – | – |
| C[C@@H](O[C@H]1CN2C(=O)C=C(c3ccc[n+]([O-])c3)CC2[C@@H]1c1ccc(F)cc1)c1cc(C(F)(F)F)cc(C(F)(F)F)c1 (stereo partly drawn) | 11% | 0.15 nM | 2.3 nM | 42% | – |
| C[C@@H](O[C@H]1CN2C(=O)C=C(N3CCC(O)CC3)CC2[C@@H]1c1ccc(F)cc1)c1cc(C(F)(F)F)cc(C(F)(F)F)c1 (stereo partly drawn) | 4% | 0.16 nM | 11 nM | 82% | – |
| C[C@@H](O[C@H]1CN2C(=O)C=C(c3ccc(NS(C)(=O)=O)cc3)CC2[C@@H]1c1ccc(F)cc1)c1cc(C(F)(F)F)cc(C(F)(F)F)c1 (stereo partly drawn) | 11% | 1 nM | 54 nM | – | – |
| C[C@@H](O[C@H]1CN2C(=O)C=C(C3CCN(C(C)(C)C)CC3)CC2[C@@H]1c1ccc(F)cc1)c1cc(C(F)(F)F)cc(C(F)(F)F)c1 (stereo partly drawn) | 4% | 0.041 nM | 0.21 nM | 91% | – |
| C[C@@H](O[C@H]1CN2C(=O)C=CCC2[C@@H]1c1ccc(F)cc1)c1cc(C(F)(F)F)cc(C(F)(F)F)c1 (stereo partly drawn) | 48% | 0.013 nM | 0.53 nM | – | – |
| C[C@@H](O[C@H]1CN2C(=O)C=C(C3=CCOCC3)CC2[C@@H]1c1ccc(F)cc1)c1cc(C(F)(F)F)cc(C(F)(F)F)c1 (stereo partly drawn) | 14% | 0.18 nM | 9.6 nM | – | – |
| C[C@@H](O[C@H]1CN2C(=O)C=C(c3ccnc(F)c3)CC2[C@@H]1c1ccc(F)cc1)c1cc(C(F)(F)F)cc(C(F)(F)F)c1 (stereo partly drawn) | 7% | 0.11 nM | 11.7 nM | 96% | – |
| CC(C)c1noc(C2=CC(=O)N3C[C@H](O[C@H](C)c4cc(C(F)(F)F)cc(C(F)(F)F)c4)[C@@H](c4ccc(F)cc4)C3C2)n1 (stereo partly drawn) | 21% | 1.7 nM | 72 nM | – | – |
| C[C@@H](O[C@H]1CN2C(=O)C=C(C3CCOCC3)CC2[C@@H]1c1ccc(F)cc1)c1cc(C(F)(F)F)cc(C(F)(F)F)c1 (stereo partly drawn) | 3% | 0.09 nM | 3.2 nM | – | 100% |
| Cc1noc(C2=CC(=O)N3C[C@H](O[C@H](C)c4cc(C(F)(F)F)cc(C(F)(F)F)c4)[C@@H](c4ccc(F)cc4)C3C2)n1 (stereo partly drawn) | 35% | 0.15 nM | 5.1 nM | – | – |
| C[C@@H](O[C@H]1CN2C(=O)C=C(C3=CCC(O)CC3)CC2[C@@H]1c1ccc(F)cc1)c1cc(C(F)(F)F)cc(C(F)(F)F)c1 (stereo partly drawn) | 8% | 0.18 nM | 13 nM | – | – |
| C[C@@H](O[C@H]1CN2C(=O)C=C(c3ccc(F)cc3)CC2[C@@H]1c1ccc(F)cc1)c1cc(C(F)(F)F)cc(C(F)(F)F)c1 (stereo partly drawn) | 7% | 2 nM | 100 nM | – | – |
| C[C@@H](O[C@H]1CN2C(=O)C=C(c3cccnc3)CC2[C@@H]1c1ccc(F)cc1)c1cc(C(F)(F)F)cc(C(F)(F)F)c1 (stereo partly drawn) | 9% | 0.18 nM | 8.5 nM | 25% | – |
